The values below are quoted from earlier work in patent US9439985B2, “Compositions for radiolabeling diethylenetriaminepentaacetic acid (DTPA)-dextran” (Navidea Biopharmaceuticals, Inc., priority 2009, dated 2016).

In data set [1] the test system is mannose-binding glycoprotein receptors in macrophages and dendritic cells present in the sentinel node. To be noted: rabbit; Hoh et al.
The test system of data set [2] is mannose-terminated glycoprotein receptors. To be noted: in vitro; Vera et al.

With 99mTc-DTPA-mannosyl-dextran, in data set [1], the biodistribution after injection entry is “diffuses into lymph channels, flows to the sentinel node, and binds to mannose-binding glycoprotein receptors”.

In the case of DTPA-mannosyl-dextran, the “binding to mannose-terminated glycoprotein receptors” value in data set [2] is reported as “binds avidly”.
